# Source: ChEMBL document CHEMBL1201862, “PubChem BioAssay data set” (2004)
# Calls of active or inactive are those of the source.
# Assays:
# [1] = biological target: Eukaryotic translation initiation factor 4E (Mus musculus, UniProt P63073); test: eIF4E–eIF4G protein interaction inhibitors, dose response, biochemical, TR-FRET (AID 855); assay type: functional;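 also: potency for disrupting eIF4E binding to eIF4GI seen as loss of FRET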
# [2] = biological target: T1, Voltage-gated N-type calcium channel alpha-1B subunit/Amyloid beta A4 precursor protein-binding family A member 1 (Homo sapiens, UniProt Q00975+Q02410); assay type: protein assay
# [3] = biological target: T1, Voltage-gated N-type calcium channel alpha-1B subunit/Amyloid beta A4 precursor protein-binding family A member 1; assay type: protein assay; remark: listed apart in the source
# [4] = A cytotoxicity screen of small molecule inhibitors of the PhoP region in Salmonella typhi identified in the primary screen. [Related pubchem assays: 1850, 1864, 1985 ]; assay type: functional
# [5] = system: H4; test: Luminescence Cell-Based Dose Response HTS to Identify Activators of 5'UTR Stem-Loop Driven Prion Protein mRNA Translation in H4 Neuroglioblastoma Cells. [Related pubchem assays: 1829 (Project Summary), 1814 (Primary HTS)]; assay type: functional; conditions: Homo sapiens
# [6] = Luminescence Cell-Based Dose Response HTS to Identify Activators of Luciferase Translation or Activity in H4 […] Cells. [Related pubchem assays: 1829 (Project Summary), 1814 (Primary HTS)]; assay type: functional
# [7] = Luminescence Cell-Based Dose Confirmation HTS to Identify Activators of 5'UTR Stem-Loop Driven Alpha-Synuclein mRNA Translation in H4 Neuroglioblastoma Cells. [Related pubchem assays: 1829 (Project Summary), 1814 (Primary HTS)]; assay type: functional
# [8] = biological target: T2, Short transient receptor potential channel 4 (Mus musculus, UniProt Q9QUQ5); test: mouse TRPC4 channel inhibitors, dose response, cell-based, HEK293 TRPC4/mu-opioid, Fluo-4 calcium (AID 434942); assay type: functional;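 also: potency of inhibitors blocking the TRPC4 calcium response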
# T2 sequence (Q9QUQ5 whole entry): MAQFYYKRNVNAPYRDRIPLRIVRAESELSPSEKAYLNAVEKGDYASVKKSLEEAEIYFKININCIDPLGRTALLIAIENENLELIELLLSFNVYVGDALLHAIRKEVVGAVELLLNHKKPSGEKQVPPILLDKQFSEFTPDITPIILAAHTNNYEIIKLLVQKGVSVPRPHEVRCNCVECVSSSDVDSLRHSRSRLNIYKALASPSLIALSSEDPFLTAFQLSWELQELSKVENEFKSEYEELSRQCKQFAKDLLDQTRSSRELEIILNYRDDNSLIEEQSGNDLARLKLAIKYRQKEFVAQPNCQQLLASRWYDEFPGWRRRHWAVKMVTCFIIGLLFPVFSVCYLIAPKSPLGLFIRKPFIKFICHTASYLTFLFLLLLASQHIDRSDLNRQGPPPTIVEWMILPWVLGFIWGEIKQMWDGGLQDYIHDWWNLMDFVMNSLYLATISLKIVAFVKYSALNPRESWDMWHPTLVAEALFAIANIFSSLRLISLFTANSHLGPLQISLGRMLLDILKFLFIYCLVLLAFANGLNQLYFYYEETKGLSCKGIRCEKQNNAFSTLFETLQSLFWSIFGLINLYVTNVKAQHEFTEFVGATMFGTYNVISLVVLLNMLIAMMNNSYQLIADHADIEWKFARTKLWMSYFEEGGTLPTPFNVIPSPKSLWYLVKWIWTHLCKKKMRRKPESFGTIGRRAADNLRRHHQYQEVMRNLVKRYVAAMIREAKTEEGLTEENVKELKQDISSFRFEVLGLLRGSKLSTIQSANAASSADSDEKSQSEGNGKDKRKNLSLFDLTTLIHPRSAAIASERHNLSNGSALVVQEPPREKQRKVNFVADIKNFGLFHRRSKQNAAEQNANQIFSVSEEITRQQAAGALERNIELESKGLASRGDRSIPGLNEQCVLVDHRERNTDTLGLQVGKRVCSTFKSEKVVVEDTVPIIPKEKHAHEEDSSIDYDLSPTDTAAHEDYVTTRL
# [9] = system: H9c2; test: cells; assay type: functional, cell-based; conditions: Rattus norvegicus, H9c2, Myocardium;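 also: confirmatory concentration-response retest of ultra-high-throughput screening hits for modulation of myocardial damage; cell death induced by hydrogen peroxide oxidative stress; compound pretreatment for 60 min then peroxide exposure for 2 h; potency is for protecting the cells against peroxide damage rather than for killing them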
# [10] = biological target: T3, Epstein-Barr nuclear antigen 1 (Epstein-Barr virus (strain B95-8) (HHV-4) (Human herpesvirus 4), UniProt P03211); test: EBNA-1 inhibitors, dose response, biochemical, fluorescence polarization, 1536-well (AID 2381); design: species or system human gammaherpesvirus 4;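 also: fluorescence polarization of a Cy5 DNA probe bound by EBNA-1 protein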
# T3 sequence (P03211 whole entry): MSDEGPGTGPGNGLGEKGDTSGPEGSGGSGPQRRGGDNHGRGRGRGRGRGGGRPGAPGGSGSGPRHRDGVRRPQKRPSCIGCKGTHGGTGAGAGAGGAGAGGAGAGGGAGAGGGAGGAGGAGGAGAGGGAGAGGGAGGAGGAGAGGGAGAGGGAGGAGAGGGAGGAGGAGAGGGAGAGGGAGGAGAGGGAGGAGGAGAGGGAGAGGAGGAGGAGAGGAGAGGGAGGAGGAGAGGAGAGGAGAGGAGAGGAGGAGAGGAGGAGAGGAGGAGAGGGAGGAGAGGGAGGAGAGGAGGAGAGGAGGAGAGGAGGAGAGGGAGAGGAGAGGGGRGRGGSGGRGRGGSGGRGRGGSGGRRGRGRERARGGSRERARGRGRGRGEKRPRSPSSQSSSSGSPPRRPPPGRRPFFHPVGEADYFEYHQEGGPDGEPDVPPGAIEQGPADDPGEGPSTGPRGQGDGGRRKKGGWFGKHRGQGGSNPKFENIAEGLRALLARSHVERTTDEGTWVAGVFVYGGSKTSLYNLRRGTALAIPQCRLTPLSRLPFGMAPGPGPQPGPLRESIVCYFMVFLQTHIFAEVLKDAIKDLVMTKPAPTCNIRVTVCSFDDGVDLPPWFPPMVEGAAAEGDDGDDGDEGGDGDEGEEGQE
# [11] = biological target: T4, Lytic switch protein BZLF1 (Epstein-Barr virus (strain B95-8) (HHV-4) (Human herpesvirus 4), UniProt P03206); test: EBV ZTA inhibitors, dose response, counter-screen for EBNA-1 inhibitor project, biochemical, fluorescence polarization, Epstein-Barr virus, 1536-well (AID 2377); design: species or system human gammaherpesvirus 4;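 also: fluorescence polarization of Cy5-labelled ZRE DNA probe bound by purified Zta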
# T4 sequence (P03206 whole entry): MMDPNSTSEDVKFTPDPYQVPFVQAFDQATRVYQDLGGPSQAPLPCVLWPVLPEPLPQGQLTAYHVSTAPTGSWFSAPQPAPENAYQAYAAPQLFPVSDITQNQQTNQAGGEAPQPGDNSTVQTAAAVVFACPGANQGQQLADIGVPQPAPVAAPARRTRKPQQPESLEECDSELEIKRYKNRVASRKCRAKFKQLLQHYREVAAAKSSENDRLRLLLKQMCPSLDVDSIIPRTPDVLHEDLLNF
# [12] = biological target: T5, Estrogen receptor (Homo sapiens, UniProt P03372);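 also: potency for inhibiting coactivator peptide recruitment to the receptor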
# T5 sequence (P03372 whole entry): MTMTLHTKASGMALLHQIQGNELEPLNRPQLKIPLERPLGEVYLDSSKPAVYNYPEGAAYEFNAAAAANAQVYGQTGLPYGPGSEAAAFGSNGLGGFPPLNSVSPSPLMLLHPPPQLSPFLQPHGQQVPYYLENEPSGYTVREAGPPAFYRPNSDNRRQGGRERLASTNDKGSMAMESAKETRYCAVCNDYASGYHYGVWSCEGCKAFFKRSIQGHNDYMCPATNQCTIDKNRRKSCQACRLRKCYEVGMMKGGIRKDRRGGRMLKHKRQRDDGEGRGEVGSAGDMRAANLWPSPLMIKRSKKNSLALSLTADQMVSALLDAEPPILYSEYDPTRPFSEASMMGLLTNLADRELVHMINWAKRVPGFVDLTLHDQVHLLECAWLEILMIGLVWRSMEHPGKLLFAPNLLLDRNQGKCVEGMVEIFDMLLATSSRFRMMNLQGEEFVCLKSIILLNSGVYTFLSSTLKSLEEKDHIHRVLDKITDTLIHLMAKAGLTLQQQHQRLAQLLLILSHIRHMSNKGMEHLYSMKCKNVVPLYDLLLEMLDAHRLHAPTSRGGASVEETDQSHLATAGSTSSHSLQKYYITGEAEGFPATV
# [13] = biological target: T6, fMet-Leu-Phe receptor (Homo sapiens, UniProt P21462); test: FPR ligands, dose response (AID 519); assay type: functional
# T6 sequence (P21462 whole entry): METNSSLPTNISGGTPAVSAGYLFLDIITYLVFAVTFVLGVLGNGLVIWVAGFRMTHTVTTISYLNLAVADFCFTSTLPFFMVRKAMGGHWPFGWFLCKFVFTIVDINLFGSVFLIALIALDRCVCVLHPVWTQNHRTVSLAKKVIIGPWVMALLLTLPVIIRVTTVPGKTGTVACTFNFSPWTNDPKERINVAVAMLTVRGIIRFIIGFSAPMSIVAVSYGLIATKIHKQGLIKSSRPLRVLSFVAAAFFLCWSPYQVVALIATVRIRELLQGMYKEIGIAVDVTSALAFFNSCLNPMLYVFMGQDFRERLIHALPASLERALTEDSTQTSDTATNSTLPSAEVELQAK
# [14] = A Cell Based Secondary Assay To Explore Cytotoxicity of Compounds that Sensitize Mycobacterium Tuberculosis to Beta-Lactam Antibiotics.; assay type: functional
# [15] = system: HEK293; test: cells; conditions: Homo sapiens;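 also: cells exposed to compound for 14 hours overnight before viability readout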
# [16] = biological target: Tumor necrosis factor (Homo sapiens, UniProt P01375); test: TNFa-triggered NF-kB activation inhibitors, SAR follow-up, cell-based, revised (AID 2337); assay type: functional
# [17] = biological target: T7, Nucleotide-binding oligomerization domain-containing protein 1 (Homo sapiens, UniProt Q9Y239); test: NOD1 signaling inhibitors, SAR follow-up, revised (AID 2333); assay type: functional
# T7 sequence (Q9Y239 whole entry): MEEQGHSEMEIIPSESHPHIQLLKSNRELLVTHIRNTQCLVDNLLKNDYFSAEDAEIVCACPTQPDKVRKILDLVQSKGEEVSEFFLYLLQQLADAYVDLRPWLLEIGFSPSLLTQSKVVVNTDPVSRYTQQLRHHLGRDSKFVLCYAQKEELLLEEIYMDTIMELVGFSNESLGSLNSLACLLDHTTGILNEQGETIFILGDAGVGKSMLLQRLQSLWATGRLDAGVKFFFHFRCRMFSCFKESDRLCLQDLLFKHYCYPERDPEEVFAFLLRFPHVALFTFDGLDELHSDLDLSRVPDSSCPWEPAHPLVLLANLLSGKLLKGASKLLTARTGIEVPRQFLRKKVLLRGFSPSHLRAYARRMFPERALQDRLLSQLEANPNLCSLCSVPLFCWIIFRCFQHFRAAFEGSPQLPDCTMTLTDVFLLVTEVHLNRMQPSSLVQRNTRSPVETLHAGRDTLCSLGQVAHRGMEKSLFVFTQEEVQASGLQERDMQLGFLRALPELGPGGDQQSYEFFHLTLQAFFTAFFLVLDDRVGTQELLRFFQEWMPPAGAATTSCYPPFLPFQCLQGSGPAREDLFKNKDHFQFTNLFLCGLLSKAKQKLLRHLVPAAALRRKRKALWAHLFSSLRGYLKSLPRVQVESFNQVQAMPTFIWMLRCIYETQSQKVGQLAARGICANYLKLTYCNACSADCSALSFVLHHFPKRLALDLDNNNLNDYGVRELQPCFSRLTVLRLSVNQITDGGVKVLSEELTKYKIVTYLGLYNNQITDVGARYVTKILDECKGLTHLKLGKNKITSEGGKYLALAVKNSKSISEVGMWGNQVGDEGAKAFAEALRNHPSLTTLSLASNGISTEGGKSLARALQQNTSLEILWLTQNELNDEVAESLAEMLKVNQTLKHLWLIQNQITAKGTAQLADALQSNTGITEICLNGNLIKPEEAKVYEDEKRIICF
# T1 sequence (Q00975 whole entry): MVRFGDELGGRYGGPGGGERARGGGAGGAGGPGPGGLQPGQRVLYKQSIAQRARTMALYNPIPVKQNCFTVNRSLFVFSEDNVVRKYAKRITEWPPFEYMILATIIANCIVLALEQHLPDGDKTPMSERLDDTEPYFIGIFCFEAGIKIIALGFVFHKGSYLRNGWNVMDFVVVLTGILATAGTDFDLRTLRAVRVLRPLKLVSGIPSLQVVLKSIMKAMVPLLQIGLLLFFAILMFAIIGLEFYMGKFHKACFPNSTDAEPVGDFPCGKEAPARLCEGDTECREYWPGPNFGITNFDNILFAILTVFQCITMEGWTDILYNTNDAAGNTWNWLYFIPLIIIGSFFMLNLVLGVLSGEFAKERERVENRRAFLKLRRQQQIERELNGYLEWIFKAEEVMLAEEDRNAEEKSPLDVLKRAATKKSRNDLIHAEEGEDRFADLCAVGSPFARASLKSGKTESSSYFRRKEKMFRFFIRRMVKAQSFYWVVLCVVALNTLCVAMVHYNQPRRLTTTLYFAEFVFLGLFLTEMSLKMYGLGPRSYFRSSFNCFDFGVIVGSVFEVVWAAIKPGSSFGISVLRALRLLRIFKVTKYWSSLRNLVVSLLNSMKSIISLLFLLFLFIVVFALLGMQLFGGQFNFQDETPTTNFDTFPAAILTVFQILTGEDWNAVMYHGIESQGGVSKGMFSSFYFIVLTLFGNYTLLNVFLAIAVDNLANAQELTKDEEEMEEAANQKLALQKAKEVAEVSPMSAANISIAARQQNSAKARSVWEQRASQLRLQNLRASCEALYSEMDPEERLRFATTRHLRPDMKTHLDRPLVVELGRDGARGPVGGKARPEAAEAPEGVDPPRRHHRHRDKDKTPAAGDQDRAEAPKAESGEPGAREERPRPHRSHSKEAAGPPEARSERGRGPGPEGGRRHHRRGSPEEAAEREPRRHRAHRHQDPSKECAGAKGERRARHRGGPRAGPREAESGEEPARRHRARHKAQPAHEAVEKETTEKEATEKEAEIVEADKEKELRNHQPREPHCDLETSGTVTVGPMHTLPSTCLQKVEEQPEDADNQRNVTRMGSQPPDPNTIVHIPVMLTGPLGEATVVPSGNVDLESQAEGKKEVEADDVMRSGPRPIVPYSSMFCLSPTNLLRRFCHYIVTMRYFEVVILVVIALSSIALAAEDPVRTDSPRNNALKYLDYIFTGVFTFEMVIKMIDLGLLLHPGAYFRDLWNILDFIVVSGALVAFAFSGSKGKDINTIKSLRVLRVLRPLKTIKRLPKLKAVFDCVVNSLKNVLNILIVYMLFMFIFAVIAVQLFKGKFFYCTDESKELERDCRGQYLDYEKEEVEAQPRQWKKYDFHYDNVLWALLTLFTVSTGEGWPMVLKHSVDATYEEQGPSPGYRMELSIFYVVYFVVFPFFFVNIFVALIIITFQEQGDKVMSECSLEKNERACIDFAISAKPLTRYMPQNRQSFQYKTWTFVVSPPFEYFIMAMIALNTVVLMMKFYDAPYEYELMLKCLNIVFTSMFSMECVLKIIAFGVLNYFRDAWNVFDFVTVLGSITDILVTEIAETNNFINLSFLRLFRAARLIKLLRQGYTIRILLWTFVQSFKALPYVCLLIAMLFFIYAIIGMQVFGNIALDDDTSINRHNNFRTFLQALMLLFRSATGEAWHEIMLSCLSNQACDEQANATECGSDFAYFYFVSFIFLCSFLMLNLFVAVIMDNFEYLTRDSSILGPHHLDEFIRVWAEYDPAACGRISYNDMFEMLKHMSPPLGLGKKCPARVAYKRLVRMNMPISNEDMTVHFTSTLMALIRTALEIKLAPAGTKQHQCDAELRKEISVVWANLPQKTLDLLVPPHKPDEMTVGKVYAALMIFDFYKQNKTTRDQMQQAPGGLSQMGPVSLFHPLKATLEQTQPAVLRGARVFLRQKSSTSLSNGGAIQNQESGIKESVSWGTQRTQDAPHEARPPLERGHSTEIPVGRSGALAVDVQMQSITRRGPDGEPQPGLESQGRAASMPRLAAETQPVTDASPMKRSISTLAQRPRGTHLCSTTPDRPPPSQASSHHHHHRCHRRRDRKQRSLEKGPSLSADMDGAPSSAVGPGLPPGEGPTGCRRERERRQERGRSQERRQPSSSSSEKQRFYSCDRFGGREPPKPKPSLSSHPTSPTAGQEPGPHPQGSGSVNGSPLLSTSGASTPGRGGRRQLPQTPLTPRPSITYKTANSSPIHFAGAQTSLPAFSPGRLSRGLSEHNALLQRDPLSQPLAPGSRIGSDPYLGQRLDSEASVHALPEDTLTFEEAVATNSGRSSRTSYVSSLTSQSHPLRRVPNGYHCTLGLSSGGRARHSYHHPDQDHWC
# T1 sequence (Q02410 whole entry): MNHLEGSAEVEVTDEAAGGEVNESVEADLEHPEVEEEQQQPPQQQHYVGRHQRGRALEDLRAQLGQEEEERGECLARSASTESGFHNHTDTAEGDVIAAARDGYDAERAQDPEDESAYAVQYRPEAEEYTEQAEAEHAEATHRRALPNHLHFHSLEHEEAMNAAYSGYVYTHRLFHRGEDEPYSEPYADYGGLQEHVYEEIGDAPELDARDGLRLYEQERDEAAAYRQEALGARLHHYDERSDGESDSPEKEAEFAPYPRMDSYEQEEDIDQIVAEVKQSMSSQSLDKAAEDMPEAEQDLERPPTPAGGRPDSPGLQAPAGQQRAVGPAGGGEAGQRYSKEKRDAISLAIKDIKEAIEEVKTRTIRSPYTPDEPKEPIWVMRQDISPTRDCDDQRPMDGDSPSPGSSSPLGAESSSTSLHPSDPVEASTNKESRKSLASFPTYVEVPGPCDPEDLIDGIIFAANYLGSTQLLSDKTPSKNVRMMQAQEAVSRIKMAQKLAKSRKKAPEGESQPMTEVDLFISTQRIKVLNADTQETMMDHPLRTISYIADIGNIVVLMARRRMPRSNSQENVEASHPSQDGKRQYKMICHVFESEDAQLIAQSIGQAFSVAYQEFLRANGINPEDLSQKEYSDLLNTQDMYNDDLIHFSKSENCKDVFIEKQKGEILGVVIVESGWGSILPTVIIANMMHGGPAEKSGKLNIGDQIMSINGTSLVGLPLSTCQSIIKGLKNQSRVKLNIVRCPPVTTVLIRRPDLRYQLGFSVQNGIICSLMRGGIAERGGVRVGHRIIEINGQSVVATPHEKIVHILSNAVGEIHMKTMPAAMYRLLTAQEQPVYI
# Sequence of Eukaryotic translation initiation factor 4E (P63073 whole entry): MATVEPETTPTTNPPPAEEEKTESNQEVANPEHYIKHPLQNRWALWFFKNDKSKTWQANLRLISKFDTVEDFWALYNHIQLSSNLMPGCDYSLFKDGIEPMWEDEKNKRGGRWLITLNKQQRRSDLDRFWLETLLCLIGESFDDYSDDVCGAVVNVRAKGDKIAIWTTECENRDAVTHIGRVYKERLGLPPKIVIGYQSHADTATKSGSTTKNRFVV
# Sequence of Tumor necrosis factor (P01375 whole entry, the tested form may be a part): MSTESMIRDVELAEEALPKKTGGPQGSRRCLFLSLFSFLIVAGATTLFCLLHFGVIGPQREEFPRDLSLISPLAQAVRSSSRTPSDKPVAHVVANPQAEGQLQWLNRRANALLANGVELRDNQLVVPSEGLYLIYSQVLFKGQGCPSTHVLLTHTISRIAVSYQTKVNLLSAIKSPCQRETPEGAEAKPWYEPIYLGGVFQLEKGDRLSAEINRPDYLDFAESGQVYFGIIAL
smiles,measurement,setting,value
CSc1ccccc1NC(=O)c1ccccc1C,IC50,[1],50 µM (inactive)
COc1ccc(/C=C2\SC(=S)N(CC(=O)NNC(=O)c3ccncc3)C2=O)cc1,IC50,[2],> 56.8 µM (not active)
same,IC50,[3],> 50 µM (inactive)
CCCCn1cnc2cc(NCc3cccc(OC)c3O)ccc21,EC50,[4],> 50 µM (active)
CCOC(=O)c1ccc(N2Cc3ccccc3/C2=N\C(=O)c2cccc([N+](=O)[O-])c2)cc1,EC50,[4],> 50 µM (active)
same,EC50,[5],6.09 µM (active)
same,EC50,[6],12.3 µM (active)
same,EC50,[7],39.1 µM (active)
COc1ccc(CNC2=NC(=O)CC(C(=O)Nc3ccc(F)cc3)S2)cc1 (stereo unspecified),IC50,[1],> 64 µM (inactive)
COc1ccc(S(=O)(=O)N2CCC(C(=O)NCc3cccc(OC)c3)CC2)cc1,IC50,[1],> 64 µM (inactive)
COc1ccc(C2CC2/C(=N/O)c2ccccc2)cc1 (stereo unspecified),EC50,[8],2.99 µM (active)
COc1ccc(Sc2nc(-c3ccccc3)ncc2C(=O)O)cc1,EC50,[8],5.96 µM (active)
C/C(=N\NC(=O)c1c(Br)c(C)nn1C)c1ccc(NC(=O)c2ccoc2C)cc1,IC50,[9],> 79 µM (inactive)
same,EC50,[4],> 50 µM (active)
same,IC50,[10],15.7 µM (not active)
same,IC50,[11],> 111 µM (not active)
O=C(Nc1ccnn1C1CCN(CCCC2CCCC2)CC1)c1ccccc1Cl,EC50,[8],1.68 µM (active)
COc1ccc(CCNC2CCCCC2)cc1,EC50,[4],> 50 µM (active)
N#Cc1c(C(F)(F)F)cc(-c2ccccc2)nc1SCc1nc(N)nc(N2CCOCC2)n1,IC50,[12],> 50 µM (not active)
same,Ki,[13],> 66.7 µM (inactive)
same,CC50,[14],> 40 µM (active)
C/C=C/C=C\C(=O)Nc1cccc(C2=NOC3(C2)C[C@H](C(N)=O)N(C(=O)/C=C/C)C3)c1 (stereo partly specified),IC50,[2],9.88 µM (active)
same,IC50,[3],6.79 µM (active)
CC12CC3(C)CC(C)(C1)CC(NC(=O)N1CCCC1)(C2)C3,EC50,[8],7.5 µM (active)
O=C(CSc1nc2scc(-c3ccccc3)c2c(=O)[nH]1)Nc1ccc(C(F)(F)F)cc1,IC50,[15],10.3 µM (active)
same,IC50,[16],0.752 µM (active)
same,IC50,[17],1.65 µM (active)
Cc1cccc(NC(=S)NC2CCCCC2)n1,IC50,[2],9.58 µM (active)
same,IC50,[3],> 50 µM (inactive)
COC/C=C/C1=CC2=CC(=O)C(C)(OC(=O)c3cnc4ccccc4n3)C(=O)C2=CN1c1ccc(CO)cc1 (stereo unspecified),IC50,[2],10.4 µM (active)
same,IC50,[3],11.2 µM (active)
